Test results from PubChem BioAssay AID1671318.

Target: Tyrosine-protein kinase Lyn (Homo sapiens) (UniProt P07948)
Test: inhibitors of human LYN isoform A activity – biochemical, Z'-LYTE, FRET readout, dose response (AID 1671318)
Conditions: Z'-LYTE FRET kinase assay, recombinant LYN A

Tyrosine-protein kinase Lyn (Homo sapiens), sequence (P07948 whole entry, looked up, canonical isoform): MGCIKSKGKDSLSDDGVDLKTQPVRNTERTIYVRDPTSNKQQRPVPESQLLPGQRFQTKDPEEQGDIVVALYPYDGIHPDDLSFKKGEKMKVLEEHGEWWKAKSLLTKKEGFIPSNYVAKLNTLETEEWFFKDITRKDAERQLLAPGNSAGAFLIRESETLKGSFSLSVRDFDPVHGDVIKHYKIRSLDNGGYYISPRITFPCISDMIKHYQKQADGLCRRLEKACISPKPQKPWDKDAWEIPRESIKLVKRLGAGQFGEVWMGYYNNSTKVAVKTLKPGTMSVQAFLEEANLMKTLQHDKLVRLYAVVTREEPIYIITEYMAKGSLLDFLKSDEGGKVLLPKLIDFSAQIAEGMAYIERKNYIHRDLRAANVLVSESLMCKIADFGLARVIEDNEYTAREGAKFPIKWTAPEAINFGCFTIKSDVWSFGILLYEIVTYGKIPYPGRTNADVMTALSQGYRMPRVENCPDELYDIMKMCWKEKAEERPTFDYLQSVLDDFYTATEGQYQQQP

COc1cc2ncnc(Nc3cccc(Cl)c3)c2cc1OC
IC50: 208 nM
